Assay results from patent EP0961591B1, “METHOD TO ENHANCE TISSUE AC[…] RADIOLABELED COMPOUNDS” (BOARD OF SUPERVISORS OF LOUISIANA STATE UNIVERSITY AND …, priority 1997, dated 1999).

Columns and labels:
SK-R2 = experiment: Peptide binding and internalization assay; set-up: species or system human
Protocol: Cell lines were obtained from the ATCC (IMR-32 and SKNSH) or from Ohio State University (Columbus, Ohio) (SK-R2). All cells lines were maintained in 5% CO2 at 37°C in media defined by the suppliers of the cell lines.
(§1) Cells were harvested, counted with a hemocytometer, and resuspended in binding buffer (Minimum Essential Medium (MEM), 10 mM Hepes, 0.01% BSA). A standard assay used 500,000 cells in 1 ml of binding buffer. Radioactive ligand alone (500,000 cpm), or in combination with at least 1,000-fold molar excess (10^-6 M) non-radioactive compound (to calculate specific binding), was added to a final volume of 1 ml. At the termination of the experiment, the incubation medium was removed, the cells were rinsed twice with Hanks balanced salt solution (HBSS), and the radioactivity in the cells determined using a gamma counter. This level of radioactivity represents total binding, which includes both membrane-bound and internalized fractions. Specific binding was determined by calculating the difference in the levels of measured radioactivity without the unlabeled competitor minus the radioactivity with the unlabeled competitor.
(§2) To differentiate between membrane and intracellular binding, cells were subsequently incubated for 10 min at 4°C with acidified HBSS (pH=4-5), rinsed in HBSS, and the radioactivity again determined using the gamma counter. Since the acid wash preferentially released the radioactive ligand from the external surface of the cell, remaining radioactivity was attributed to internalized fractions. Membrane-associated binding was then calculated as the difference between the total binding and internalized fractions.
(§3) The assay methods were as described in Example 2.

SKNSH = experiment: Peptide binding and internalization assay; set-up: species or system human
From the text: The cells included: (1) IMR-32 (ATCC No. CCL-127), a human neuroblastoma cell line with a very high expression level of somatostatin receptors (SST), predominantly SST-2; (2) SKNSH (ATCC No. HTB-11), a human neuroblastoma bone marrow metastatic cell that lacks somatostatin receptors as defined by either a binding assay or reverse transcriptase-polymerase chain reaction (RTPCR); and (3) SK-R2, a SKNSH-derived cell line transfected with the gene for the SST-2 receptor. The IMR-32 and the SK-R2 cells express somatostatin receptors type 2 (SST-2). […] Cell lines were obtained from the ATCC (IMR-32 and SKNSH) or from Ohio State University (Columbus, Ohio) (SK-R2). All cells lines were maintained in 5% CO2 at 37°C in media defined by the suppliers of the cell lines.
as §1, §2, §3

[1] = system: neuroendocrine cancers expressing the somatostatin receptor; experiment: Pilot clinical trial of monthly 180 mCi doses; type: in vivo, human; settings: ten patients
Protocol: For six months, pilot clinical trials were conducted in ten human patients with progressive metastatic indolent and symptomatic neuroendocrine cancers expressing the somatostatin receptor. […] The first monthly dose was a bolus injection of 180 mCi. The second monthly dose was infusion of 180 mCi over 72 hr. The third monthly dose was infusion of 180 mCi over 24 hr. Thereafter, all monthly doses were infusion of 180 mCi over 24 hr. Clinical benefits (as evidenced by reduced pain, weight gain, reduced malaise, etc.) occurred in 6 of the 10 neuroendocrine (carcinoid/islet cell) patients. Partial radiographic responses (greater than 50% reduction in the product of perpendicular tumor diameters) occurred in 2 patients, and significant tumor necrosis developed in 7 of the 10 neuroendocrine patients. Treatment-related toxicity included 2 Grade III platelet, 1 Grade II WBC, 1 Grade I WBC and 2 Grade I Hb on the NCI (National Cancer Institute) grading scale.

[2] = system: human angiogenic vascular tissue; experiment: Human Placental Vein Angiogenesis Model; type: cell-based; settings: 50 µCi/mL (or equivalent amounts), 14 days
From the text: Watson et al., "Up-Regulation of Somatostatin Receptor Subtype 2 (SST-2) mRNA Occurs During the Transformation of Human Endothelium to the Angiogenic Phenotype," Paper Presented at the 12th International Symposium on Regulatory Peptides, Copenhagen, Denmark, September 1996; J.C. Watson et al., "SST-2 Gene Expression Appears During Human Angiogenesis," Regulatory Peptides, vol. 64, p. 206 (Abstract) (1996); and J.C. Watson et al., "Breast Cancer Increases Initiation of Angiogenesis Without Accelerating Neovessel Growth Rate," Surgery, vol. 122, pp. 508-14 (1997). Human placental veins were cut into discs of 2 mm diameter and were incorporated into a 0.3% fibrinogen gel. This gel was then overlaid with tissue culture media containing 10-20 % fetal calf serum (FCS). Under normal conditions, endothelial cords will begin to sprout from the transected cut edge of the vein discs within six days.
These vein discs were placed into wells of three separate culture plates. One culture plate, the control sample, was allowed to grow without treatment. […] The discs were then incubated for fourteen days. […]
Using a digital image analyzer, the mean area of the sprouting tissue surrounding the discs was measured.
To measure the growth rate of angiogenic vascular tissue, every two days during the 14-day incubation period, the length of sprouts were measured. […]

[3] = SKR-2, competitor octreotide acetate
[4] = NCI grading scale, monthly 180 mCi doses

Substance: (^111In-DTPA-D-Phe^1)-octreotide [^111In-pentetreotide]
- binding associated with the plasma membrane (SK-R2; SK-R2 cell line): 95%
- Total Binding (CPM ± SD), MEMBRANE (SK-R2; SKR-2, 1 CPM/cell): 33,655 ± 2,728 CPM
- Total Binding (CPM ± SD), TOTAL (SK-R2; SKR-2, 1 CPM/cell): 36,261 ± 2,085 CPM
- Total Binding (CPM ± SD), INTRACELLULAR (SK-R2; SKR-2, 1 CPM/cell, after acid wash): 2,607 ± 672 CPM
- Kd (SK-R2; SKR-2, Scatchard plot analysis, read-out: Kd (apparent dissociation constant)): 1 nM
- Specific Binding (CPM), INTRACELLULAR (SK-R2; [3]): 1,792 CPM
- Specific Binding (CPM), MEMBRANE (SK-R2; [3]): 33,683 CPM
- Specific Binding (CPM), TOTAL (SK-R2; [3]): 35,475 CPM
- Total Binding (CPM ± SD), MEMBRANE (SKNSH; 1 CPM/cell): 87 ± 114 CPM
- Total Binding (CPM ± SD), TOTAL (SKNSH; 1 CPM/cell): 861 ± 30 CPM
- Total Binding (CPM ± SD), INTRACELLULAR (SKNSH; 1 CPM/cell, after acid wash): 775 ± 107 CPM
- Specific Binding (CPM), INTRACELLULAR (SKNSH; competitor octreotide acetate): 0 CPM
- Specific Binding (CPM), MEMBRANE (SKNSH; competitor octreotide acetate): 0 CPM
- Treatment-related toxicity: Grade I Hb [1, 4]: 2
- Treatment-related toxicity: Grade I WBC [1, 4]: 1
- Treatment-related toxicity: Grade II WBC [1, 4]: 1
- Treatment-related toxicity: Grade III platelet [1, 4]: 2
- Clinical benefits (reduced pain, weight gain, reduced malaise, etc.) ([1]; monthly 180 mCi doses (bolus, then infusion over 72 hr, then 24 hr)): 6 of the 10
- Partial radiographic responses (greater than 50% reduction in the product of perpendicular tumor diameters) ([1]; monthly 180 mCi doses): 2 patients
- significant tumor necrosis ([1]; monthly 180 mCi doses): 7 of the 10
- % initiation of angiogenic growth [2]: lowest % initiation
- vessel area ([2]; digital image analyzer): the least area of new growth
